From US11230542B2, “Inhibitors of integrated stress response pathway” (Praxis Biotech LLC, priority 2017, dated 2022)
Where two headings read alike, the source gives them in different places.

How the values were obtained:
CHO cells = assay: Protein translation assay (puromycin incorporation in CHO cells, unstressed or Tg-stressed); assay type: cell-based, Chinese hamster; details: Cricetulus griseus, media alone 100%
Procedure, shortened: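 CHO cells pretreated 2 h with 1 μM compound (unstressed), or 1 h with 100 nM or 1 μM then co-treated with 300 nM Tg. Pulse-labelled with 10 μg/ml puromycin for 30 min, then anti-puromycin western blot with densitometry. Unstressed values normalized to media alone (100%); stressed recovery scaled between media alone (100%) and Tg alone (0%).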

C57Bl/6J mice with TBI = assay: Learning memory, long-term memory and social behavior after traumatic brain injury (TBI); assay type: in vivo, mouse
From the text: Wild type three-month-old male C57Bl/6J mice were randomly assigned to TBI or sham surgeries. Animals were anesthetized and maintained at 2% isoflurane and secured to a stereotaxic frame with nontraumatic ear bars. The hair on their scalp was removed, and eye ointment and betadine were applied to their eyes and scalp, respectively. A midline incision was made to expose the skull. A unilateral TBI was induced in the right parietal lobe using the controlled cortical impact model (Nat Neurosci. 2014 August; 17(8): 1073-82). Mice received a 3.5-mm diameter craniectomy, a removal of part of the skull, using an electric microdrill. The coordinates of the craniectomy were: anteroposterior, −2.00 mm and mediolateral, +2.00 mm with respect to bregma. After the craniectomy, the contusion was induced using a 3-mm convex tip attached to an electromagnetic impactor (Leica). The contusion depth was set to 0.95 mm from dura with a velocity of 4.0 m/s sustained for 300 ms. These injury parameters were chosen to target, but not penetrate, the hippocampus. Sham animals received craniectomy surgeries but without the focal injury. After focal TBI surgery, the scalp was sutured and the animal was allowed to recover in an incubation chamber set to 37° C. Animals were returned to their home cage after showing normal walking and grooming behavior.
After 28 days post injury (dpi), animals were tested on the RAWM assay (see above). Animals ran 12 trials during learning test and 4 trials during memory test. Last three trials from learning test and all four trials from memory test were averaged to determine learning memory (learning test) and long-term memory (memory test). […]
To quantitate social tendencies of the treated mice, the time spent with a novel conspecific mouse was measured in a Crawley's three-chamber box (J Vis Exp. 2011; (48): 2473). […] The time spent with the never-before-met animal was recorded. Direct contact between the treated mouse and the housing cage or stretching of the body of the subject mouse in an area 3-5 cm around the housing cage is counted as an active contact.

O=C(COc1ccc(Cl)cc1)N[C@H]1CC[C@H](NC[C@@H](O)COc2ccc(Cl)cc2)CC1 (single isomer, unassigned) [Compound 3, (+)-2-(4-chlorophenoxy)-N-(4-((3-(4-chlorophenoxy)-2-hydroxypropyl)amino)cyclohexyl)acetamide] showed an activity at 0.1 µM (CHO cells; CHO cells stressed with 300 nM Tg, Tg alone 0%, read-out: % Recovery of protein expression (100 nM test compound)) of 69.4%, an activity at 1 µM (CHO cells; CHO cells stressed with 300 nM Tg, Tg alone 0%, read-out: % Recovery of protein expression (1 μM test compound)) of 155% and an activity at 1 µM (CHO cells; unstressed CHO cells, 2 h, read-out: % Protein expression relative to untreated (1 μM test compound)) of 162%. The “learning memory, number of errors in RAWM” value (C57Bl/6J mice with TBI; 5 mg/kg intraperitoneally, 28-29 dpi, versus vehicle) was “made significantly less errors over the course of training”, the “long-term memory, RAWM” value (C57Bl/6J mice with TBI; 35 dpi, 7 days after training, versus vehicle) was “a similar trend was seen” and the “social behavior, time spent with the novel mouse” value (C57Bl/6J mice with TBI; 42 dpi, Crawley's three-chamber box) was “spent more time with the novel mouse at levels similar to those animals from sham group”.
